Reference: ChEMBL document CHEMBL1133824, “Amino acid phosphoramidate nucleosides: potential ADEPT/GDEPT substrates” (2001)

Experiments:
Type in all cases: functional
CCRF-CEM [1] = test: In vitro concentration required for 50% inhibition of growth of human leukemia cell line CCRF-CEM without hPAP (0.2 unit/mL)
[2] = Ratio of GI50 without hPAP/ GI50 with hPAP
CCRF-CEM [3] = test: In vitro concentration required for 50% inhibition of growth of human leukemia cell line CCRF-CEM with hPAP (0.2 unit/mL)

Row | SMILES | GI50 (CCRF-CEM [1]) [nM] | Ratio [2] | GI50 (CCRF-CEM [3]) [nM]
1 | Nc1ccn([C@@H]2O[C@H](CO)[C@@H](O)[C@@H]2O)c(=O)n1 [CYTARABINE] | 90 | 0.902 | 99.8
2 | O=c1[nH]c(=O)n([C@H]2C[C@H](O)[C@@H](CO)O2)cc1F [FLOXURIDINE] | 2 | 3.33 | 0.6
3 | COC(=O)[C@H](Cc1ccccc1)NP(=O)(O)OCC1OC(n2cc(F)c(=O)[nH]c2=O)CC1O (some centres not stated) | 463 | 578 | 0.8
4 | COC(=O)[C@H](Cc1c[nH]c2ccccc12)NP(=O)(O)OCC1OC(n2cc(F)c(=O)[nH]c2=O)CC1O (some centres not stated) | 4830 | 5370 | 0.9
